US20260125382A1, “COMPOUNDS FOR INHIBITING OR DEGRADING CDK2 AND/OR CDK9 AND MEDICINAL USE THEREOF” (KOREA RESEARCH INSTITUTE OF CHEMICAL TECHNOLOGY, priority 2022, published 2026)

What was measured:
[1] = target: T1, CDK2 (Homo sapiens, UniProt P24941); assay: CDK protein degradation activity (Western blotting), CDK2; type: cell-based; settings: MDA-MB-231 cells, 16 hours, Western blot
T1 construct: endogenous in cells; host or cells: MDA-MB-231
How it was run: (§1)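 Degradation is judged from CDK2 and CDK9 band intensity relative to tubulin and DMSO-treated cells, after 16 h exposure of MDA-MB-231 cells to three compound concentrations (100 nM, 1 μM, 10 μM).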

[2] = target: T2, CDK9 (Homo sapiens, UniProt P50750); assay: CDK protein degradation activity (Western blotting), CDK9; type: cell-based; settings: MDA-MB-231 cells, 16 hours, Western blot
T2 construct: endogenous in cells; host or cells: MDA-MB-231
T2 sequence (P50750 whole entry): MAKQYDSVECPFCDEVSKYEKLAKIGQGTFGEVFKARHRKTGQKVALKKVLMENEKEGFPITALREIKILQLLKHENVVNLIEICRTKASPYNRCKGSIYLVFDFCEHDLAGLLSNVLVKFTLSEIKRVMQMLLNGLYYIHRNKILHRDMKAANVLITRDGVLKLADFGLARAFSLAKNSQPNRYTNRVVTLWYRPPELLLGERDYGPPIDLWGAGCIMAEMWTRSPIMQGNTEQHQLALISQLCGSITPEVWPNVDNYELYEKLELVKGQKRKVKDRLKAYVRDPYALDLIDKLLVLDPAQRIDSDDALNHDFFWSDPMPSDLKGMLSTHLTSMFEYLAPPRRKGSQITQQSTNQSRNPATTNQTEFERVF
How it was run: as §1

[3] = target: T3, CDK2/cyclin A (Homo sapiens, UniProt P24941); assay: CDK protein inhibition, KINOMEscan (Eurofins), CDK2/cyclin A; type: binding; settings: for IC50: Table 17, unit inferred
T3 construct: purchased Eurofins Scientific

SMILES	Enzyme degradation CDK2 (% remaining) @ 0.1 μM [1]	Enzyme degradation CDK2 (% remaining) @ 1 μM [1]	Enzyme degradation CDK2 (% remaining) @ 10 μM [1]	Enzyme degradation CDK9 (% remaining) @ 0.1 μM [2]	Enzyme degradation CDK9 (% remaining) @ 1 μM [2]	Enzyme degradation CDK9 (% remaining) @ 10 μM [2]	CDK2/cyclin A inhibition (%) (at concentration of 1 μM) ([3]; 1 μM)	IC50 [3] [nM]
Cc1cccc(C(=O)N[C@H]2C[C@H](n3cnc4c(NCC5CCN(C(=O)CCCCCNc6ccc7c(c6)C(=O)N([C@@H]6CCC(=O)NC6=O)C7=O)CC5)ncnc43)C2)n1 [Compound 65, N-((1r,3r)-3-(6-(((1-(6-((2-(2,6-dioxopiperidin-3-yl)-1,3-dioxoisoindolin-5-yl)amino)hexanoyl)piperidin-4-yl)methyl)amino)-9H-purin-9-yl)cyclobutyl)-6-methylpicolinamide]	100%	50%	20%	30%	10%	0%	87	–
Cc1cccc(C(=O)N[C@H]2C[C@@H](n3cnc4c(Nc5ccc(N6CCN(CC7CCN(C(=O)COc8cccc9c8C(=O)N(C8CCC(=O)NC8=O)C9=O)CC7)CC6)cc5)ncnc43)C2)n1 (some centres unmarked) [Compound 91, N-((1s,3s)-3-(6-((4-(4-((1-(2-((2-(2,6-dioxopiperidin-3-yl)-1,3-dioxoisoindolin-4-yl)oxy)acetyl)piperidin-4-yl)methyl)piperazin-1-yl)phenyl)amino)-9H-purin-9-yl)cyclobutyl)-6-methylpicolinamide]	0/0/0%	0/0/0%	0/0/0%	0/0/0%	0/0/0%	0/0/0%	–	613
Cc1cccc(C(=O)N[C@H]2C[C@@H](n3cnc4c(NCCC5CCN(CC6CCN(C(=O)CNc7ccc8c(c7)C(=O)N(C7CCC(=O)NC7=O)C8=O)CC6)CC5)ncnc43)C2)n1 (some centres unmarked) [Compound 125, N-((1s,3s)-3-(6-((2-(1-((1-((2-(2,6-dioxopiperidin-3-yl)-1,3-dioxoisoindolin-5-yl)glycyl)piperidin-4-yl)methyl)piperidin-4-yl)ethyl)amino)-9H-purin-9-yl)cyclobutyl)-6-methylpicolinamide]	30%	10%	20%	0/0/0%	0/0/0%	0/0/0%	–	1300

Other lines, results leading:

Enzyme degradation CDK2 (% remaining) @ 0.1 μM [1]	Enzyme degradation CDK2 (% remaining) @ 1 μM [1]	Enzyme degradation CDK2 (% remaining) @ 10 μM [1]	Enzyme degradation CDK9 (% remaining) @ 0.1 μM [2]	Enzyme degradation CDK9 (% remaining) @ 1 μM [2]	Enzyme degradation CDK9 (% remaining) @ 10 μM [2]	CDK2/cyclin A inhibition (%) (at concentration of 1 μM) ([3]; 1 μM)	IC50 [3] [nM]	SMILES
30%	40%	50%	0/0/0%	0/0/0%	0/0/0%	–	> 10000	Cc1cccc(C(=O)N[C@H]2C[C@H](n3cnc4c(NCC5CCN(CC6CCN(C(=O)CNc7ccc8c(c7)C(=O)N(C7CCC(=O)NC7=O)C8=O)CC6)CC5)ncnc43)C2)n1 (some centres unmarked) [Compound 74, N-((1r,3r)-3-(6-(((1-((1-((2-(2,6-dioxopiperidin-3-yl)-1,3-dioxoisoindolin-5-yl)glycyl)piperidin-4-yl)methyl)piperidin-4-yl)methyl)amino)-9H-purin-9-yl)cyclobutyl)-6-methylpicolinamide]
0/0/0%	0/0/0%	0/0/0%	0/0/0%	0/0/0%	0/0/0%	–	439	O=C1CCC(N2C(=O)c3cccc(NCC(=O)N4CCC(CN5CCN(c6ccc(Nc7ncnc8c7ncn8[C@H]7C[C@@H](NC(=O)Cc8ccccc8)C7)cc6)CC5)CC4)c3C2=O)C(=O)N1 (some centres unmarked) [Compound 176, N-((1s,3s)-3-(6-((4-(4-((1-((2-(2,6-dioxopiperidin-3-yl)-1,3-dioxoisoindolin-4-yl)glycyl)piperidin-4-yl)methyl)piperazin-1-yl)phenyl)amino)-9H-purin-9-yl)cyclobutyl)-2-phenylacetamide]
